Measured values as given in PubChem BioAssay (NCI).
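These data come from cells grown in 96-well plates and exposed to compound for 48 hours at five concentrations. TGI: concentration producing complete growth inhibition.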

Key:
Test in all cases: inhibition of tumour cell growth, NCI panel, 48 h
A549 NSCLC = test system: A549 NSCLC
NCI-H522 lung = test system: NCI-H522 lung
UO-31 renal = test system: UO-31 renal
SW-620 colon = test system: SW-620 colon
MDA-N = test system: MDA-N
MDA-MB-231 breast = test system: MDA-MB-231 breast
HOP-62 NSCLC = test system: HOP-62 NSCLC
SK-OV-3 ovarian = test system: SK-OV-3 ovarian
NCI-H460 lung = test system: NCI-H460 lung
HS 578T breast = test system: HS 578T breast
HCT-116 colon = test system: HCT-116 colon
IGROV1 ovarian = test system: IGROV1 ovarian
SR leukemia = test system: SR leukemia
786-0 renal = test system: 786-0 renal
SNB-19 CNS = test system: SNB-19 CNS
A498 renal = test system: A498 renal
MDA-MB-435 = test system: MDA-MB-435
MALME-3M melanoma = test system: MALME-3M melanoma
EKVX NSCLC = test system: EKVX NSCLC
U251 CNS = test system: U251 CNS

Compound | TGI (A549 NSCLC) [µM] | TGI (NCI-H522 lung) [µM] | TGI (UO-31 renal) [µM] | TGI (SW-620 colon) [µM] | TGI (MDA-N) [µM] | TGI (MDA-MB-231 breast) [µM] | TGI (HOP-62 NSCLC) [µM] | TGI (SK-OV-3 ovarian) [µM] | TGI (NCI-H460 lung) [µM] | TGI (HS 578T breast) [µM] | TGI (HCT-116 colon) [µM] | TGI (IGROV1 ovarian) [µM] | TGI (SR leukemia) [µM] | TGI (786-0 renal) [µM] | TGI (SNB-19 CNS) [µM] | TGI (A498 renal) [µM] | TGI (MDA-MB-435) [µM] | TGI (MALME-3M melanoma) [µM] | TGI (EKVX NSCLC) [µM] | TGI (U251 CNS) [µM]
[O-][n+]1onc2c1/C(=N/O)CCC2 | > 100 | > 100 | > 100 | > 100 | > 100 | > 100 | > 100 | > 100 | > 100 | > 100 | > 100 | > 100 | > 100 | > 100 | > 100 | > 100 | > 100 | > 100 | > 100 | –
O=c1[nH]c(=O)n(C2CC(O)C(CO)O2)cc1OCC1CCCCC1 (centres undefined) | > 100 | > 100 | > 100 | – | > 100 | > 100 | > 100 | > 100 | > 100 | > 100 | > 100 | > 100 | > 100 | > 100 | > 100 | – | > 100 | > 100 | > 100 | > 100
O=c1c2cc([N+](=O)[O-])ccc2nc2n1CCCCC2 | > 100 | > 100 | > 100 | > 100 | > 100 | > 100 | > 100 | > 100 | > 100 | > 100 | > 100 | > 100 | > 100 | > 100 | – | > 100 | > 100 | > 100 | > 100 | > 100
CN1CC[C@]2(c3cccc(O)c3)CC(=O)/C(=C/c3ccc(Cl)c(Cl)c3)[C@@H]1C2 | 3.36 | – | 2.61 | 2.41 | 1.83 | 2.4 | – | – | 3.39 | 6.59 | 2.47 | 3.72 | 10.3 | 2.23 | 3.48 | 3.69 | 1.4 | 2.85 | 3.03 | 2.14
O=c1[nH]cnc2c1ncn2[C@@H]1C[C@H]1CO | > 100 | > 100 | > 100 | > 100 | > 100 | > 100 | > 100 | – | > 100 | > 100 | > 100 | > 100 | > 100 | > 100 | > 100 | > 100 | > 100 | > 100 | > 100 | > 100
CCOC(=O)c1ccc(Nc2nc3ccccc3nc2C(=O)OCC)cc1 | > 100 | > 100 | > 100 | – | > 100 | > 100 | > 100 | > 100 | > 100 | > 100 | > 100 | > 100 | > 100 | > 100 | > 100 | – | > 100 | > 100 | > 100 | > 100
CCCCCCCCCCCCCCCCOCC(CCl)OP(=O)(O)OP(=O)(O)OCC1OC(n2ccc(N)nc2=O)C(O)C1O (centres undefined) | > 100 | > 100 | > 100 | > 100 | > 100 | > 100 | > 100 | > 100 | > 100 | > 100 | > 100 | > 100 | – | > 100 | > 100 | > 100 | > 100 | > 100 | > 100 | > 100
